Experimental data: ChEMBL document CHEMBL1201862, “PubChem BioAssay data set” (2004)
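Briefly, cells in 96-well plates were exposed to five compound concentrations for 48 h, and endpoints were estimated by linear interpolation. GI50: concentration for 50% inhibition of growth.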 Active and inactive are the calls of the source. Cut-off read from the data, not from the text of the source: active = GI50 up to about 1.1 µM and inactive = higher.

Columns and labels:
Assay in all cases: inhibition of tumour cell growth, NCI panel, 48 h
HCT-15 = test system: HCT-15
SNB-19 = test system: SNB-19
SK-OV-3 = test system: SK-OV-3
SK-MEL-5 = test system: SK-MEL-5
HL-60 = test system: HL-60
HOP-62 = test system: HOP-62
786-0 = test system: 786-0
A549 = test system: A549
LXFL 529 = test system: LXFL 529
OVCAR-4 = test system: OVCAR-4
LOX IMVI = test system: LOX IMVI
HCT-116 = test system: HCT-116
ACHN = test system: ACHN
KM12 = test system: KM12
SR = test system: SR
OVCAR-5 = test system: OVCAR-5
DU-145 = test system: DU-145
T47D = test system: T47D
MDA-MB-231 = test system: MDA-MB-231
MDA-MB-435 = test system: MDA-MB-435

| SMILES | GI50 (HCT-15) [µM] | GI50 (SNB-19) | GI50 (SK-OV-3) | GI50 (SK-MEL-5) | GI50 (HL-60) | GI50 (HOP-62) | GI50 (786-0) | GI50 (A549) | GI50 (LXFL 529) | GI50 (OVCAR-4) | GI50 (LOX IMVI) | GI50 (HCT-116) | GI50 (ACHN) | GI50 (KM12) | GI50 (SR) | GI50 (OVCAR-5) | GI50 (DU-145) | GI50 (T47D) | GI50 (MDA-MB-231) | GI50 (MDA-MB-435) |
| --- | --- | --- | --- | --- | --- | --- | --- | --- | --- | --- | --- | --- | --- | --- | --- | --- | --- | --- | --- | --- |
| CC(C)(C)c1cc(COc2c3sc(=S)sc3c(OCc3cc(C(C)(C)C)cc(C(C)(C)C)c3)c3sc(=S)sc23)cc(C(C)(C)C)c1 | > 100 | > 100 µM (inactive) | > 100 µM (inactive) | > 100 µM (inactive) | > 100 µM (inactive) | > 100 µM (inactive) | > 100 µM (inactive) | > 100 µM (inactive) | > 100 µM (inactive) | > 100 µM (inactive) | > 100 µM (inactive) | > 100 µM (inactive) | > 100 µM (inactive) | – | – | – | – | – | – | – |
| O=C(Nc1ccccc1-c1nn(CO)c(=S)n(CO)c1=O)C(F)(F)F | – | > 100 µM (inactive) | > 100 µM (inactive) | 31.8 µM (inactive) | – | > 100 µM (inactive) | > 100 µM (inactive) | > 100 µM (inactive) | > 100 µM (inactive) | > 100 µM (inactive) | > 100 µM (inactive) | > 100 µM (inactive) | > 100 µM (inactive) | > 100 µM (inactive) | > 100 µM (inactive) | > 100 µM (inactive) | – | – | – | – |
| NCCCN(CCCN)CCCNCc1c2ccccc2c(CNCCCN(CCCN)CCCN)c2ccccc12 | 14.4 | 14.6 µM (inactive) | – | 4.6 µM (inactive) | 11.6 µM (inactive) | 14.4 µM (inactive) | 11.4 µM (inactive) | 24.3 µM (inactive) | 10.5 µM (inactive) | 17.2 µM (inactive) | 19.1 µM (inactive) | 14.9 µM (inactive) | 11.7 µM (inactive) | 4.37 µM (inactive) | 35.2 µM (inactive) | 42 µM (inactive) | – | – | – | – |
| O=C1C(O)=C(CN(CCCl)CCCl)C(=O)c2ccccc21 | 31 | 50 µM (inactive) | > 100 µM (inactive) | 52.6 µM (inactive) | 31 µM (inactive) | > 100 µM (inactive) | 28.2 µM (inactive) | 34.3 µM (inactive) | 48.3 µM (inactive) | > 100 µM (inactive) | – | 34.4 µM (inactive) | 35.2 µM (inactive) | 56.5 µM (inactive) | 35.6 µM (inactive) | 76.9 µM (inactive) | – | – | – | – |
| CC1CC2(CC[C@@H]1O)OCCO2 (stereo partly specified) | > 100 | > 100 µM (inactive) | > 100 µM (inactive) | > 100 µM (inactive) | > 100 µM (inactive) | > 100 µM (inactive) | > 100 µM (inactive) | > 100 µM (inactive) | > 100 µM (inactive) | > 100 µM (inactive) | > 100 µM (inactive) | > 100 µM (inactive) | – | > 100 µM (inactive) | – | – | – | – | – | – |
| CC(C)N1C(C)[C@@H](c2ccccc2)O[P@@]1(=O)CC1=CCCCC1 (stereo partly specified) | > 100 | – | > 100 µM (inactive) | 55.6 µM (inactive) | 24.1 µM (inactive) | > 100 µM (inactive) | > 100 µM (inactive) | > 100 µM (inactive) | > 100 µM (inactive) | – | > 100 µM (inactive) | 90.2 µM (inactive) | > 100 µM (inactive) | > 100 µM (inactive) | 69.5 µM (inactive) | > 100 µM (inactive) | – | – | – | – |
| O=C1c2ccccc2NC1(c1ccccc1)c1c(-c2ccccc2)[nH]c2ccccc12 (stereo unspecified) | 13.4 | 37.3 µM (inactive) | 37.5 µM (inactive) | – | 5.04 µM (inactive) | 67.5 µM (inactive) | 18.2 µM (inactive) | 3.98 µM (inactive) | 20.4 µM (inactive) | 8.99 µM (inactive) | – | 7.28 µM (inactive) | 9.25 µM (inactive) | 10.5 µM (inactive) | 3.65 µM (inactive) | – | – | – | – | – |
| C=C1CC(OC(C)=O)/C=C(/C)CCC(C(C)(C)O)CC1O (stereo unspecified) | > 100 | > 100 µM (inactive) | > 100 µM (inactive) | > 100 µM (inactive) | > 100 µM (inactive) | > 100 µM (inactive) | > 100 µM (inactive) | > 100 µM (inactive) | – | > 100 µM (inactive) | > 100 µM (inactive) | > 100 µM (inactive) | > 100 µM (inactive) | > 100 µM (inactive) | > 100 µM (inactive) | > 100 µM (inactive) | > 100 µM (inactive) | > 100 µM (inactive) | > 100 µM (inactive) | > 100 µM (inactive) |
| COc1ccc(/C=C2/CCCC/C2=N/O)cc1 | > 100 | > 100 µM (inactive) | > 100 µM (inactive) | – | > 100 µM (inactive) | > 100 µM (inactive) | > 100 µM (inactive) | > 100 µM (inactive) | 66.8 µM (inactive) | 69.5 µM (inactive) | 29.6 µM (inactive) | 87.7 µM (inactive) | 88.9 µM (inactive) | > 100 µM (inactive) | – | > 100 µM (inactive) | – | – | – | – |
| CCc1nnc(S)n1/N=C\c1ccc(-c2ccccc2[N+](=O)[O-])o1 | 30.3 | > 100 µM (inactive) | 36.1 µM (inactive) | 12 µM (inactive) | 35.6 µM (inactive) | 56.5 µM (inactive) | 45.6 µM (inactive) | 42.9 µM (inactive) | – | 44.8 µM (inactive) | 28 µM (inactive) | 32.3 µM (inactive) | 52.5 µM (inactive) | 31.8 µM (inactive) | 16.9 µM (inactive) | 50.7 µM (inactive) | 53.5 µM (inactive) | 43.9 µM (inactive) | 47.2 µM (inactive) | 15.4 µM (inactive) |
| O=S1(=O)c2ccccc2NC(=S)CC1c1ccccc1 (stereo unspecified) | > 100 | > 100 µM (inactive) | > 100 µM (inactive) | > 100 µM (inactive) | > 100 µM (inactive) | > 100 µM (inactive) | > 100 µM (inactive) | > 100 µM (inactive) | – | > 100 µM (inactive) | > 100 µM (inactive) | > 100 µM (inactive) | > 100 µM (inactive) | > 100 µM (inactive) | > 100 µM (inactive) | > 100 µM (inactive) | > 100 µM (inactive) | > 100 µM (inactive) | > 100 µM (inactive) | > 100 µM (inactive) |
| COc1ccc2nc(NC(=O)C(=O)NNC(=O)c3ccncc3)sc2c1 | > 100 | > 100 µM (inactive) | > 100 µM (inactive) | > 100 µM (inactive) | > 100 µM (inactive) | > 100 µM (inactive) | > 100 µM (inactive) | > 100 µM (inactive) | > 100 µM (inactive) | > 100 µM (inactive) | > 100 µM (inactive) | > 100 µM (inactive) | > 100 µM (inactive) | – | – | – | – | – | – | – |
| COc1ccc(C2OC(=O)c3ccc4ccccc4c32)c(C)c1 (stereo unspecified) | 4.1 | 14.7 µM (inactive) | 7.82 µM (inactive) | 3.54 µM (inactive) | 3.69 µM (inactive) | 7.26 µM (inactive) | 12.7 µM (inactive) | 6.31 µM (inactive) | – | 19.6 µM (inactive) | 7.89 µM (inactive) | 4.93 µM (inactive) | 20.6 µM (inactive) | 5.87 µM (inactive) | 3.86 µM (inactive) | 19.9 µM (inactive) | 22.2 µM (inactive) | 7.6 µM (inactive) | 6.12 µM (inactive) | 2.36 µM (inactive) |
| OCC1OC(n2cnc3c(/C=C(/O)c4ccccc4)ncnc32)C(O)C1O (stereo unspecified) | 1.05 | 12.4 µM (inactive) | 0.428 µM (active) | 5.65 µM (inactive) | 0.165 µM (active) | 5.21 µM (inactive) | 2.94 µM (inactive) | 1.29 µM (inactive) | – | 2.84 µM (inactive) | 1.63 µM (inactive) | 1.55 µM (inactive) | 0.923 µM (active) | 4.62 µM (inactive) | 1.35 µM (inactive) | 3.98 µM (inactive) | 1.61 µM (inactive) | 3.03 µM (inactive) | 1.64 µM (inactive) | 2.25 µM (inactive) |
| CSCCCNC(=O)c1csc(-c2csc(CCN)n2)n1 | 54.8 | > 100 µM (inactive) | > 100 µM (inactive) | 93.1 µM (inactive) | > 100 µM (inactive) | > 100 µM (inactive) | > 100 µM (inactive) | > 100 µM (inactive) | – | > 100 µM (inactive) | 59.7 µM (inactive) | 84.5 µM (inactive) | > 100 µM (inactive) | > 100 µM (inactive) | 91.4 µM (inactive) | 49.4 µM (inactive) | > 100 µM (inactive) | 74.1 µM (inactive) | 52.5 µM (inactive) | > 100 µM (inactive) |
| CC(=N\N=C\c1ccccn1)/C(C)=N/N=C(C)/C(C)=N/N=C(C)/C(C)=N/N=C/c1ccccn1 | > 100 | > 100 µM (inactive) | > 100 µM (inactive) | > 100 µM (inactive) | > 100 µM (inactive) | > 100 µM (inactive) | > 100 µM (inactive) | > 100 µM (inactive) | – | > 100 µM (inactive) | > 100 µM (inactive) | > 100 µM (inactive) | > 100 µM (inactive) | > 100 µM (inactive) | > 100 µM (inactive) | > 100 µM (inactive) | > 100 µM (inactive) | > 100 µM (inactive) | > 100 µM (inactive) | > 100 µM (inactive) |
| CC(=O)O[C@@]12[C@@H]3O[C@@]4(O)C[C@]5(C)[C@H]6C[C@@](C(C)C)(O[C@H]5c5ccoc5)O[C@H]1[C@]6(C4)O[C@]2(O)C(C)=CC3(C)C | > 100 | 63.2 µM (inactive) | > 100 µM (inactive) | > 100 µM (inactive) | > 100 µM (inactive) | > 100 µM (inactive) | 64.4 µM (inactive) | > 100 µM (inactive) | – | > 100 µM (inactive) | > 100 µM (inactive) | > 100 µM (inactive) | > 100 µM (inactive) | > 100 µM (inactive) | > 100 µM (inactive) | > 100 µM (inactive) | > 100 µM (inactive) | > 100 µM (inactive) | > 100 µM (inactive) | > 100 µM (inactive) |
